Each molecule was assayed against GST-Xa-hAAK1 (Homo sapiens (Human), UniProt Q2M2I8) (assay: AAK1 Kinase Assay). Conditions: bacterially expressed GST-Xa-hAAK1 3.5 nM; ATP 22 μM; peptide substrate 1.5 μM; 3 hours at room temperature; Caliper LabChip 3000.
Assay type: biochemical
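Further: each compound tested across an eleven-point concentration series, with IC50 obtained through non-linear regression fitting.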

Sequence of GST-Xa-hAAK1 (Q2M2I8 whole entry): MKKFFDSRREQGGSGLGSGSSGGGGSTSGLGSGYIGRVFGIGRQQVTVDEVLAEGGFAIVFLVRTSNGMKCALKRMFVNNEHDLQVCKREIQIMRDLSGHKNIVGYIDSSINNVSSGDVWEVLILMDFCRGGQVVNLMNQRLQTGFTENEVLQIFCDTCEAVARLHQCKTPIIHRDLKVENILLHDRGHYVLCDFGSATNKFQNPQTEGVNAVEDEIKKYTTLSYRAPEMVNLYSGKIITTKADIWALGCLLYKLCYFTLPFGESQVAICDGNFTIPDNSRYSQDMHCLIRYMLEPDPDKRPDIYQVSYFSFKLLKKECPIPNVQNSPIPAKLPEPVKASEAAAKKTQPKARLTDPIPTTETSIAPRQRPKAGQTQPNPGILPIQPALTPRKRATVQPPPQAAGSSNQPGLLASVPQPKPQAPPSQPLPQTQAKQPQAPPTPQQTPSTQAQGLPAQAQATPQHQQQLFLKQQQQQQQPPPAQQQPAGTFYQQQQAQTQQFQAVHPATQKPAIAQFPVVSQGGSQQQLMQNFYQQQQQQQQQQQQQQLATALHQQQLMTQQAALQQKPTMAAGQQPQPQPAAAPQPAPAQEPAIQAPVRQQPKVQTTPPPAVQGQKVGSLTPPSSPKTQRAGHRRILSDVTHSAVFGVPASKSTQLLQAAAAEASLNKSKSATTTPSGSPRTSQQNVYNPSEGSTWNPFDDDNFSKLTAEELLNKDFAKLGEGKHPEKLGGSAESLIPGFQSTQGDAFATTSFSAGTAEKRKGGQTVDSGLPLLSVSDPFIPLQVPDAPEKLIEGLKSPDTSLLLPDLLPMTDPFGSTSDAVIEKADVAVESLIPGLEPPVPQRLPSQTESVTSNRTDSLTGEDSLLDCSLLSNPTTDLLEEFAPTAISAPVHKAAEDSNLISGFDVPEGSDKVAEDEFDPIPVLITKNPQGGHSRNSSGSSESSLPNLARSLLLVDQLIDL

| Compound | IC50 |
| --- | --- |
| CC(C)C[C@](C)(N)COc1ccc(-c2ccnc(F)c2Cl)cc1C(F)(F)F [Example 39, (S)-1-(4-(3-chloro-2-fluoropyridin-4-yl)-2-(trifluoromethyl)phenoxy)-2,4-dimethylpentan-2-amine] | 3.2 nM |
| CC(C)C[C@](C)(N)COc1ccc(-c2ccnc3ccc(F)cc23)cc1C(F)(F)F [Example 73, (S)-1-(4-(6-fluoroquinolin-4-yl)-2-(trifluoromethyl)phenoxy)-2,4-dimethylpentan-2-amine] | 0.51 nM |
| COC(=O)Nc1cc(-c2ccc(OC[C@@](C)(N)CC(C)C)c(C#N)c2)ccn1 [Example 22, (S)-methyl (4-(4-((2-amino-2,4-dimethylpentyl)oxy)-3-cyanophenyl)pyridin-2-yl)carbamate] | 0.65 nM |
| CC(C)C[C@](C)(N)COc1cnc(-c2ccnc(Cl)c2)cc1C(F)F [Example 147, (S)-1-((2′-chloro-4-(difluoromethyl)-[2,4′-bipyridin]-5-yl)oxy)-2,4-dimethylpentan-2-amine] | 0.56 nM |
| CC(=O)Nc1cc(-c2cc(F)c(OC[C@@H](N)CC(C)C)cc2F)ccn1 [Example 12, (S)—N-(4-(4-((2-amino-4-methylpentyl)oxy)-2,5-difluorophenyl)pyridin-2-yl)acetamide] | 1.6 nM |
| Cc1nc(-c2ccnc3ccc(F)cc23)ccc1OC[C@@](C)(N)CC(C)C [Example 138, (S)-1-((6-(6-fluoroquinolin-4-yl)-2-methylpyridin-3-yl)oxy)-2,4-dimethylpentan-2-amine] | 35 nM |
| CC(C)C[C@](C)(N)COc1ccc(-c2cc(F)ncc2Cl)cc1C(F)(F)F [Example 40, (S)-1-(4-(5-chloro-2-fluoropyridin-4-yl)-2-(trifluoromethyl)phenoxy)-2,4-dimethylpentan-2-amine] | 8.7 nM |
| COC(=O)Nc1nccc(-c2ccc(OC[C@@](C)(N)CC(C)C)c(C#N)c2)c1F [Example 100, (S)-methyl (4-(4-((2-amino-2,4-dimethylpentyl)oxy)-3-cyanophenyl)-3-fluoropyridin-2-yl)carbamate] | 6.8 nM |
| Cc1cc(-c2ccc(OC[C@@](C)(N)CC(C)C)c(C#N)c2)c(F)cn1 [Example 105, (S)-2-((2-amino-2,4-dimethylpentyl)oxy)-5-(5-fluoro-2-methylpyridin-4-yl)benzonitrile] | 0.72 nM |
| CC(C)C[C@](C)(N)COc1ccc(-c2ccnc3cc(F)cc(F)c23)nc1C(F)F [Example 129] | 1.4 nM |
| COC(=O)Nc1cc(-c2ccc(OC[C@@](C)(N)CC(C)C)c(CO)c2)ccn1 [Example 32, (S)-methyl (4-(4-((2-amino-2,4-dimethylpentyl)oxy)-3-(hydroxymethyl)phenyl)pyridin-2-yl)carbamate] | 4.5 nM |
| COC(=O)Nc1cc(-c2ccc(OCC(C)(N)CC(C)C)cn2)ccn1 (stereo not drawn) [Example 63, methyl (5-((2-amino-2,4-dimethylpentyl)oxy)-[2,4′-bipyridin]-2′-yl)carbamate] | 24 nM |
| CC(C)C[C@](C)(N)COc1ccc(-c2ccnc3ccncc23)cc1C#N [Example 86, (S)-2-((2-amino-2,4-dimethylpentyl)oxy)-5-(1,6-naphthyridin-4-yl)benzonitrile] | 1.2 nM |
| CC(C)C[C@](C)(N)COc1ccc(-c2ccnc3cc(F)cc(F)c23)nc1Cl [Example 135, (S)-1-((2-chloro-6-(5,7-difluoroquinolin-4-yl)pyridin-3-yl)oxy)-2,4-dimethylpentan-2-amine] | 3.5 nM |
| COC(=O)Nc1cc(-c2ccc(OC[C@@](C)(N)CC(C)C)c(C)n2)ccn1 [Example 64, (S)-methyl (5-((2-amino-2,4-dimethylpentyl)oxy)-6-methyl-[2,4′-bipyridin]-2′-yl)carbamate] | 1.1 nM |
| CC(C)C[C@](C)(N)COc1cnc(-c2ccnc3ccc(OC(F)(F)F)cc23)cc1C(F)F [Example 134, (S)-1-((4-(difluoromethyl)-6-(6-(trifluoromethoxy)quinolin-4-yl)pyridin-3-yl)oxy)-2,4-dimethylpentan-2-amine] | 4.4 nM |
| COC(=O)Nc1cc(-c2ccc(OC[C@@](C)(N)CC(C)C)c(C(F)(F)F)c2)ccn1 [Example 20, (S)-methyl (4-(4-((2-amino-2,4-dimethylpentyl)oxy)-3-(trifluoromethyl)phenyl)pyridin-2-yl)carbamate] | 0.34 nM |
| CC(=O)Nc1cc(-c2ccc(OC[C@@](C)(N)CC(C)C)c(C(F)F)c2)ccn1 [Example 23, (S)—N-(4-(4-((2-amino-2,4-dimethylpentyl)oxy)-3-(difluoromethyl)phenyl)pyridin-2-yl)acetamide] | 0.76 nM |
| CC(C)C[C@](C)(N)COc1ccc(-c2ccnc3cc(C#N)ccc23)cc1C(F)(F)F [Example 89, (S)-4-(4-((2-amino-2,4-dimethylpentyl)oxy)-3-(trifluoromethyl)phenyl)quinoline-7-carbonitrile] | 0.66 nM |
| CC(=O)Nc1cc(-c2ccc(OC[C@@H](N)CC(C)C)c(C#N)c2)ccn1 [Example 3, (S)—N-(4-(4-((2-amino-4-methylpentyl)oxy)-3-cyanophenyl)pyridin-2-yl)acetamide] | 0.3 nM |
| CC(=O)Nc1cc(-c2ccc(OC[C@@H](N)CC(C)C)c(C)c2)ccn1 [Example 7, (S)—N-(4-(4-((2-amino-4-methylpentyl)oxy)-3-methylphenyl)pyridin-2-yl)acetamide] | 0.42 nM |
| CC(C)C[C@](C)(N)COc1ccc(-c2ccnc(C(F)F)c2)cc1OC(F)(F)F [Example 38, (S)-1-(4-(2-(difluoromethyl)pyridin-4-yl)-2-(trifluoromethoxy)phenoxy)-2,4-dimethylpentan-2-amine] | 0.79 nM |
| CC(C)C[C@H](N)COc1ccc(-c2ccnc(N)c2)cc1C#N [Example 4, (S)-2-((2-amino-4-methylpentyl)oxy)-5-(2-aminopyridin-4-yl)benzonitrile] | 2.8 nM |
| Cc1nccc(-c2ccc(OC[C@@](C)(N)CC(C)C)c(C(F)(F)F)c2)c1C(=O)O [Example 111, (S)-4-(4-((2-amino-2,4-dimethylpentyl)oxy)-3-(trifluoromethyl)phenyl)-2-methylnicotinic acid] | 650 nM |

The next lines start with the values.

| IC50 | Compound |
| --- | --- |
| 8.8 nM | CC(C)C[C@@](N)(CF)COc1ccc(-c2ccnc(C(F)F)c2)nc1C(F)F [Example 183, (S)-1-((2′,6-bis(difluoromethyl)-[2,4′-bipyridin]-5-yl)oxy)-2-(fluoromethyl)-4-methylpentan-2-amine] |
| 1.2 nM | CC(C)C[C@](C)(N)COc1ncc(-c2ccnc3cc(F)ccc23)cc1Cl [Example 190, (S)-1-((3-chloro-5-(7-fluoroquinolin-4-yl)pyridin-2-yl)oxy)-2,4-dimethylpentan-2-amine] |
| 2.1 nM | Cc1cc(-c2cc(Cl)c(OC[C@@](C)(N)CC(C)C)cn2)ccn1 [Example 238, (S)-1-((4-chloro-2′-methyl-[2,4′-bipyridin]-5-yl)oxy)-2,4-dimethylpentan-2-amine] |
| 5.4 nM | CC(C)C[C@](C)(N)COc1ccc(-c2ccnc(Cl)c2)nc1C(F)F [Example 158, (S)-1-((2′-chloro-6-(difluoromethyl)-[2,4′-bipyridin]-5-yl)oxy)-2,4-dimethylpentan-2-amine] |
| 0.8 nM | Cc1nccc(-c2ccc(OC[C@@](C)(N)CC(C)C)c(C(F)F)n2)c1F [Example 160, (S)-1-((6-(difluoromethyl)-3′-fluoro-2′-methyl-[2,4′-bipyridin]-5-yl)oxy)-2,4-dimethylpentan-2-amine] |
| 0.74 nM | Cc1cc(-c2ccnc3cc(Cl)ccc23)cnc1OC[C@@](C)(N)CC(C)C [Example 225, (S)-1-((5-(7-chloroquinolin-4-yl)-3-methylpyridin-2-yl)oxy)-2,4-dimethylpentan-2-amine] |
| 0.38 nM | COC(=O)Nc1cc(-c2cnc(OC[C@@](C)(N)CC(C)C)c(C(F)(F)F)c2)ccn1 [Example 220, (S)-methyl (6-((2-amino-2,4-dimethylpentyl)oxy)-5-(trifluoromethyl)-[3,4′-bipyridin]-2′-yl)carbamate] |
| 8.7 nM | COC(=O)Nc1cc(-c2cc(C(F)F)c(OC[C@@](C)(O)CC(C)C)cn2)ccn1 [Example 177, (S)-methyl (4-(difluoromethyl)-5-((2-hydroxy-2,4-dimethylpentyl)oxy)-[2,4′-bipyridin]-2′-yl)carbamate] |
| 0.99 nM | CC(C)C[C@](C)(N)COc1ncc(-c2ccnc3ccc(F)cc23)cc1Cl [Example 191, (S)-1-((3-chloro-5-(6-fluoroquinolin-4-yl)pyridin-2-yl)oxy)-2,4-dimethylpentan-2-amine] |
| 1.9 nM | COC(=O)Nc1cc(-c2cc(C(F)F)c(OC[C@](N)(CF)CC(C)C)cn2)ccn1 [Example 181, (S)-methyl (5-((2-amino-2-(fluoromethyl)-4-methylpentyl)oxy)-4-(difluoromethyl)-[2,4′-bipyridin]-2′-yl)carbamate] |
| 0.31 nM | CC(C)C[C@](C)(N)COc1ncc(-c2ccnc3cc(Cl)ccc23)cc1C(F)F [Example 197, (S)-1-((5-(7-chloroquinolin-4-yl)-3-(difluoromethyl)pyridin-2-yl)oxy)-2,4-dimethylpentan-2-amine] |
| 66 nM | CC(C)C[C@](N)(CF)COc1ccc(-c2ccnc(C(F)F)c2)nc1C(F)F [Example 185, (R)-1-((2′,6-bis(difluoromethyl)-[2,4′-bipyridin]-5-yl)oxy)-2-(fluoromethyl)-4-methylpentan-2-amine] |
| 0.36 nM | CC(C)C[C@](C)(N)COc1cnc(-c2ccnc3ccc(F)cc23)cc1Cl [Example 235, (S)-1-((4-chloro-6-(6-fluoroquinolin-4-yl)pyridin-3-yl)oxy)-2,4-dimethylpentan-2-amine] |
| 1 nM | Cc1cc(-c2ccnc3ccc(Cl)cc23)ncc1OC[C@@](C)(N)CC(C)C [Example 229, (S)-1-((6-(6-chloroquinolin-4-yl)-4-methylpyridin-3-yl)oxy)-2,4-dimethylpentan-2-amine] |
| 4.3 nM | COC(=O)Nc1cc(-c2cc(OC)c(OC[C@@](C)(N)CC(C)C)cn2)ccn1 [Example 206, (S)-methyl (5-((2-amino-2,4-dimethylpentyl)oxy)-4-methoxy-[2,4′-bipyridin]-2′-yl)carbamate] |

Reference: US9902722B2, “Biaryl kinase inhibitors” (BRISTOL-MYERS SQUIBB COMPANY, priority 2014, dated 2018)
